The source of these data is US12303545B2 (priority 2023, dated 2025).

The subject of data set [1] is BCG bacteria. In words: microbe, parasite or virus in culture. The note with it: Mycobacterium tuberculosis variant bovis BCG.
In data set [2] the test system is BCG bacteria.
The next data set relates to BCG. It is filed as cell-based, attenuated Mycobacterium bovis. The note with it: treated as in Example 5.
The next data set can be described thus: in vitro. Particulars: mouse.
The subject of data set [3] is trypsin. Put plainly: in vitro. Particulars: isolated enzyme trypsin, pH 7.4.
Protocol: (§1) A 4 mg/mL SAH1 solution and a 10 μg/mL trypsin solution each were prepared with PBS (pH 7.4) as a solvent. 250 μL of the trypsin solution was added to 250 μL of the SAH1 solution, and a reaction was conducted in an ice bath. A sample was collected at different time points after the reaction to determine the decomposition of SAH1 by RP-HPLC. RP-HPLC conditions were as follows: A C18 reversed-phase Bio-Rad analytical column was adopted: 250× 4 mm, a pore size: 30 nm, and a particle size: 7 μm. At 0 min to 40 min, linear gradient elution was conducted with 10% to 90% acetonitrile aqueous solutions, with 0.1% TFA (w/v) in both acetonitrile and water. A flow rate was 1.2 mL/min.
(§2) In addition, with the same method as above, the SAH1 aqueous solution was replaced with a 4 mg/mL BMAP-18 aqueous solution to detect the hydrolysis of BMAP-18 by trypsin.
The test system of data set [4] is trypsin. Particulars: trypsin 5 μg/mL.
Protocol: as §1, §2

As usually defined, the IC50 is the concentration that gives 50% inhibition. Low values mean higher potency, high ones lower potency. As usually defined, the fraction remaining is the share of the starting amount still present when the sample was taken.

≈ marks a conversion by molar mass, not a printed value. Where two headings read alike, the source gives them in different places. Numbered stars: 1 amine (or outer) side, 2 acyl side, 3 side chain; on linkers, the order of the positions; unused ones are H or OH. Bridge positions count the residues as written; N and C are the ends. Ends that are not written are not given here. Peptide text beside a SMILES is read from it. X1 = O=C(NC[*:1])NC[*:2]

With `CC[C@@H](CO)NCCN[C@@H](CC)CO` [Ethambutol], the MIC against BCG bacteria [1] was 800 µM (≈ 163 µg/mL).
With `NNC(=O)c1ccncc1` [Isoniazid], the MIC in the data set on BCG bacteria [1] was 800 µM (≈ 110 µg/mL).
In the case of `CO[C@H]1/C=C/O[C@@]2(C)Oc3c(C)c(O)c4c(O)c(c(/C=N/N5CCN(C)CC5)c(O)c4c3C2=O)NC(=O)/C(C)=C\C=C\[C@H](C)[C@H](O)[C@@H](C)[C@@H](O)[C@@H](C)[C@H](OC(C)=O)[C@@H]1C` [Rifampicin], in the data set on BCG bacteria [1], the MIC was 400 µM (≈ 329 µg/mL).
`CC(C)CC(NC(=O)C(CCCCN)NC(=O)C(CCCCN)NC(=O)C(Cc1ccccc1)NC(=O)C(CC(C)C)NC(=O)C(CCCCN)NC(=O)C(CCCCN)NC(=O)C(Cc1ccccc1)NC(=O)C(CCCCN)NC(=O)C1CSCNC(=O)NCSCC(NC(=O)C(Cc2ccccc2)NC(=O)C(CCCNC(=N)N)NC(=O)CN)C(=O)NC(CCCNC(=N)N)C(=O)NC(Cc2ccccc2)C(=O)NC(CCCNC(=N)N)C(=O)N1)C(=O)NC(CO)C(=O)O` (stereo not drawn) [SAH1] (H-GRFCRFRCKFKKLFKKLS-OH; linker 4-8 via X1; configuration not given here) came in with an MIC with BCG bacteria [2] (BCG bacteria, 37° C. for 7 d, then resazurin 2 d, 7H9 medium) of 12.5 µM (≈ 29.7 µg/mL). For the same compound, the “impact on cell membrane and intracellular structure of BCG (TEM)” value with BCG was “largely missed, resulting in cavities and bacterial death”. The compound further returned an IC50 at 24 h in the data set “in vitro” of 300 µM. For the same compound, the fraction remaining at 0.25 h, 2 mg/mL in the data set on trypsin [3] amounted to 67.6%. In addition, the fraction remaining at 1 h, 2 mg/mL with trypsin [3] amounted to 30.2%. For the same compound, the “Peak area (RP-HPLC)” value in the data set with trypsin [4] (reaction time 0 min) is 274.44; in the data set with trypsin [4] (reaction time 15 min), 185.49; in the data set on trypsin [4] (reaction time 30 min), 125.94; in the data set with trypsin [4] (reaction time 60 min), 82.92. In addition, the Polypeptide residue in the data set on trypsin [4] (reaction time 0 min) was 100%; in the data set with trypsin [4] (reaction time 15 min), 67.59%; in the data set on trypsin [4] (reaction time 30 min) it was 45.89%; in the data set with trypsin [4] (reaction time 60 min) it was 30.21%.
For “GRFKRFRKKFKKLFKKLS-OH [BMAP-18, G-R-F-K-R-F-R-K-K-F-K-K-L-F-K-K-L-S-OH]”, in the data set on BCG bacteria [2], the MIC was 300 µM and the “antibacterial ability relative to SAH1” value is reported as “one twenty-fourth”. Moreover, it took 150 µM to reach half-maximal inhibition in “in vitro” (IC50 at 24 h). For the same compound, in the data set on trypsin [3], the amount remaining at 0.25 h, 2 mg/mL was 17.8% and the fraction remaining at 0.5 h, 2 mg/mL came out at 0.01%. Moreover, in the data set on trypsin [4] (reaction time 0 min), the “Peak area (RP-HPLC)” value was 254.43 and the Polypeptide residue worked out at 100%. For the same compound, in the data set with trypsin [4] (reaction time 15 min), the “Peak area (RP-HPLC)” value is reported as 45.20 and the Polypeptide residue was found to be 17.76%. For the same compound, in the data set with trypsin [4] (reaction time 30 min), the “Peak area (RP-HPLC)” value was 0.02 and the Polypeptide residue entry is recorded as “almost completely hydrolyzed”.
